These results are taken from patent US20130252935A1, “Monobactams” (PFIZER INC., priority 2010, published 2013).

What all share (format): cell-based
For experiment [1], the system named is Klebsiella pneumoniae 1000-02. The experiment can be described thus: minimum inhibitory concentration (MIC) testing according to CLSI guidelines, Klebsiella pneumoniae. Particulars: Klebsiella pneumoniae; ciprofloxacin-resistant, ESBL-expressing clinical isolate 1000-02; overnight incubation; lower of duplicate values; read-out: AB-MBT: Klebsiella pneumoniae 1000-02: MIC (MstRcnt). The method, boiled down: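 MIC by CLSI broth dilution with 2-fold concentration steps and overnight incubation; lowest concentration visibly inhibiting growth versus drug-free control. Ciprofloxacin-resistant, ESBL-expressing clinical isolate 1000-02. Run in duplicate, lower value reported when within 2-fold, with QC organisms and reference compounds per run.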

Experiment [2] deals with Acinetobacter baumannii/haemolyticus AB-3167. The experiment can be described thus: minimum inhibitory concentration (MIC) testing according to CLSI guidelines, Acinetobacter. The following applies: Acinetobacter baumannii; multidrug-resistant clinical isolate AB-3167; overnight incubation; lower of duplicate values; read-out: AB-MBT: Acinetobacter baumanii AB-3167: MIC (MstRcnt). The method, boiled down:
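Broth dilution MIC per CLSI M7-A8/M100-S20 against multidrug-resistant clinical isolate AB-3167, using 2-fold drug dilutions and overnight incubation; MIC is the lowest concentration without visible growth. Duplicates within 2-fold reported as the lower value, with control strains and reference compounds in range.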

For experiment [3], the system named is Pseudomonas aeruginosa UC-12120. The experiment can be described thus: minimum inhibitory concentration (MIC) testing according to CLSI guidelines, Pseudomonas aeruginosa. Particulars: Pseudomonas aeruginosa, UC12120; UC-12120, wild-type, labeled as 1091-05; overnight incubation; lower of duplicate values; read-out: AB-MBT: Pseudomonas aeruginosa 1091-05: MIC (MstRcn). The method, boiled down: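 Broth dilution MIC per CLSI guidelines against wild-type P. aeruginosa UC-12120 (1091-05), using 2-fold drug dilutions and overnight incubation with visual reading of lowest growth-inhibiting concentration. Tested in duplicate; lower value reported when within 2-fold, with control organisms and reference compounds for quality control.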

Values after ≈ are worked out from the molar mass of the structure shown.

On to `CC(C)(O/N=C(\C(=O)N[C@@H]1C(=O)N(S(=O)(=O)O)[C@@H]1CNS(=O)(=O)c1cccc(C(=O)NCc2cc(=O)c(O)cn2O)c1)c1csc(N)n1)C(=O)O` [Example 68, 2-({[(1Z)-1-(2-amino-1,3-thiazol-4-yl)-2-{[(2R,3S)-2-({[(3-{[(1,5-dihydroxy-4-oxo-1,4-dihydropyridin-2-yl)methyl]carbamoyl}phenyl)sulfonyl]amino}methyl)-4-oxo-1-sulfoazetidin-3-yl]amino}-2-oxoethylidene]amino}oxy)-2-methylpropanoic acid], for which the values for the MIC in experiment [1], in experiment [2] and in experiment [3] were 1 µg/mL (≈ 1.29 µM), 4 µg/mL (≈ 5.18 µM) and 4 µg/mL (≈ 5.18 µM), respectively.

`Nc1nc(/C(=N/OCC(=O)O)C(=O)N[C@@H]2C(=O)N(S(=O)(=O)O)[C@@H]2CNC(=O)NCc2cc(=O)c(O)cn2O)cs1` [Example 69, ({[(1Z)-1-(2-amino-1,3-thiazol-4-yl)-2-({(2R,3S)-2-[({[(1,5-dihydroxy-4-oxo-1,4-dihydropyridin-2-yl)methyl]carbamoyl}amino)methyl]-4-oxo-1-sulfoazetidin-3-yl}amino)-2-oxoethylidene]amino}oxy)acetic acid]: the minimum inhibitory concentration (MIC) – broadly, the lowest concentration found to suppress growth – in experiment [1] came out at 1 µg/mL (≈ 1.65 µM); in experiment [2] it was 0.25 µg/mL (≈ 0.414 µM); in experiment [3], 0.25 µg/mL (≈ 0.414 µM).
